The species named for series [1] is Equus caballus. Briefly: Inhibition of horse erythrocytes trypsin like activity of beta2-20S proteasome using z-ARR-AMC as substrate at 100 uM measured for 60 mins by fluorescence assay.
In the next series the test system is Saccharomyces cerevisiae. Briefly: Inhibition of yeast 20S proteasome.
Series [2] is filed under the species Equus caballus. The series is described as follows: Inhibition of horse erythrocytes caspase like activity of beta1-20S proteasome using z-LLE-AMC as substrate at 100 uM measured for 60 mins by fluorescence assay.
The species named for series [3] is Equus caballus. The series is described as follows: Inhibition of horse erythrocytes chymotrypsin like activity of beta5-20S proteasome using suc-LLVY-AMC as substrate at 100 uM measured for 60 mins by fluorescence assay.
Series [4] is described as follows: Inhibition of horse erythrocytes trypsin like activity of beta2-20S proteasome using z-ARR-AMC as substrate measured for 60 mins by fluorescence assay. The arrangement: species or system Equus caballus.
In series [5] the target is Proteasome subunit beta type-2 (Mus musculus) (UniProt Q9R1P3). The series is described as follows: Inhibition of trypsin like activity of beta2-20S proteasome in mouse NIH-3T3 cells at 2 times IC50. It counts as cell-based. To be noted: NIH3T3.
A short description of series [6]: Chemical stability of the compound under aqueous condition assessed as drug transformation. It counts as physicochemical. To be noted: buffer.
Series [7] is described as follows: Cytotoxicity against mouse NIH/3T3 cells assessed as cell viability at 20 umol/L after 2 hrs by MTT assay. It counts as cell-based, NIH3T3. To be noted: read-out: Activity.
Series [8] is described as follows: Cytotoxicity against mouse NIH/3T3 cells assessed as cell viability at 10 umol/L after 2 hrs by MTT assay. Type of series: cell-based, NIH3T3. To be noted: read-out: Activity.
Series [9] in a line: Cytotoxicity against mouse NIH/3T3 cells assessed as cell viability at 40 umol/L after 2 hrs by MTT assay. It counts as cell-based, NIH3T3. To be noted: read-out: Activity.
The subject of series [10] is NIH3T3. Briefly: (§1) Cytotoxicity against mouse NIH/3T3 cells assessed as cell viability at 80 umol/L after 2 hrs by MTT assay. It counts as cell-based. To be noted: nih3t3, 2 h, 80 µM.
Series [11] concerns NIH3T3. Briefly: Cytotoxicity against mouse NIH/3T3 cells assessed as cell viability after 2 hrs by MTT assay. Conditions: nih3t3, 2 h. Type of series: cell-based.
The nature of series [12]: Cytotoxicity against mouse NIH/3T3 cells assessed as cell viability at 0.5 to 10 umol/L after 2 hrs by MTT assay. Type of series: cell-based, NIH3T3. Conditions: read-out: Activity.
Series [13] has as its system NIH3T3. Briefly: Cytotoxicity against mouse NIH/3T3 cells assessed as cell viability at 10 to 100 umol/L after 2 hrs by MTT assay. Conditions: nih3t3, 2 h. It counts as cell-based.
Series [14] is described as follows: Chemical stability of the compound under aqueous condition. Type of series: physicochemical. Conditions: buffer.
Series [15] is described as follows: as §1. It counts as cell-based, NIH3T3. To be noted: NIH/3T3 cells, read-out: Activity.
The nature of series [16]: Cytotoxicity against mouse NIH/3T3 cells assessed as cell viability at 1 to 40 umol/L after 2 hrs by MTT assay. Type of series: cell-based, NIH3T3. To be noted: read-out: Activity.

Each structure is given as a SMILES string. Activity calls are given as the source filed them. The calls are words filed in the database; no cut-off is given here.

Sequence of Proteasome subunit beta type-2 (Mus musculus) (Q9R1P3 whole entry): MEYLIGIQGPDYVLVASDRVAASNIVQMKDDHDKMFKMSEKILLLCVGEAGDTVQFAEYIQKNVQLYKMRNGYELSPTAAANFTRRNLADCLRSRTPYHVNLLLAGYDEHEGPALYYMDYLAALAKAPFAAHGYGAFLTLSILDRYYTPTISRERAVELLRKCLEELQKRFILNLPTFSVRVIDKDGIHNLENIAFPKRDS

In the case of `CCCC[Se]1(Br)c2ccccc2[C@H](C)[O+]1C` (stereo partly drawn), in the series filed under Equus caballus [1], the inhibition was more than 50%. In addition, the inhibition result with Saccharomyces cerevisiae, in the series listed under Equus caballus [2] and in the series filed under Equus caballus [3] was “inactive” in each case. The molecule further returned an IC50 in series [4] of 19 µM.

In the series listed under Equus caballus [1], `CCCC[Se]1(Br)c2ccccc2C[O+]1C.[Br-]` (stereo not drawn) yielded an inhibition of 90%. For the same molecule, the inhibition entry in the series on Saccharomyces cerevisiae, in the series listed under Equus caballus [2] and in the series filed under Equus caballus [3] was “inactive” in each case. Moreover, in [5], the inhibition result was “Active”. The Stability result in series [6] is “Unstable”. This molecule also gave an IC50 in series [4] of 16 µM. Moreover, in [7], the viability at 2 h, 20 µM worked out at 75%.

`CCCC[Te](Br)(Br)c1ccccc1[C@@H](C)OC`: in the series filed under Equus caballus [1], the inhibition turned out to be 90%. For the same molecule, the inhibition entry in the series with Saccharomyces cerevisiae, in the series listed under Equus caballus [2] and in the series filed under Equus caballus [3] was “inactive” in each case. The same molecule displayed an IC50 in [4] of 8 µM.

Take `CCCC[Se]c1ccccc1COC`: the inhibition entry in the series filed under Equus caballus [1] was “inactive”.

Take `CCCC[Se]1(Cl)c2ccccc2[C@H](C)[O+]1C` (stereo partly drawn): in the series listed under Equus caballus [1], the inhibition is more than 50%. For the same molecule, the inhibition result with Saccharomyces cerevisiae, in the series listed under Equus caballus [2] and in the series filed under Equus caballus [3] was “inactive” each time. The same molecule returned an IC50 in series [4] of 32 µM.

`CCCC[Te](Cl)(Cl)c1ccccc1[C@H](C)OC` returned an inhibition in the series filed under Equus caballus [1] of more than 50%. For the same molecule, the inhibition entry in the series on Saccharomyces cerevisiae, in the series listed under Equus caballus [2] and in the series listed under Equus caballus [3] was “inactive” throughout. The same molecule showed an IC50 in [4] of 5.5 µM.

In the series listed under Equus caballus [1], `CCCC[Te](Cl)(Cl)c1ccccc1[C@@H](C)OC` yielded an inhibition of more than 50%. For the same molecule, the inhibition result in the series on Saccharomyces cerevisiae, in the series listed under Equus caballus [2] and in the series listed under Equus caballus [3] was “inactive” throughout. In [4], the IC50 came to 4 µM.

With `CCCC[Te]c1ccccc1COC`, the inhibition result in the series listed under Equus caballus [1] is “inactive”.

As to `CCCC[Se]1(Cl)c2ccccc2C[O+]1C.[Cl-]` (stereo not drawn), the inhibition in the series filed under Equus caballus [1] amounted to 90%. The inhibition entry in the series on Saccharomyces cerevisiae, in the series listed under Equus caballus [2] and in the series listed under Equus caballus [3] was “inactive” throughout. In addition, in series [5], the inhibition entry was “Active”. For the same molecule, the viability at 2 h, 10 µM in [8] was found to be 50%. Besides, the viability at 2 h, 40 µM in series [9] is 40%. Further, the Activity result in the series on NIH3T3 [10] is on record as “Non-toxic”; with NIH3T3 [11], “Dose-dependent effect”. In series [6], the Stability result was “Unstable”. In series [4], half-maximal inhibition (IC50) was put at 35 µM.

On to `CCCC[Se]c1ccccc1[C@H](C)OC`, for which the inhibition result in the series listed under Equus caballus [1] was “inactive”.

Take `CCCC[Te](Cl)(Cl)c1ccccc1COC`: in the series listed under Equus caballus [1], the inhibition amounted to 90%. Also, the inhibition entry (in the series with Saccharomyces cerevisiae; in the series listed under Equus caballus [2]; in the series listed under Equus caballus [3]; in series [5]) was “inactive” each time. In series [12], the viability at 2 h was determined as 60%. Moreover, in the series with NIH3T3 [13], the Activity result is on record as “Non-toxic”. Besides, the Stability result in series [14] was “Stable”. In [4], half-maximal inhibition (IC50) required 3.5 µM.

`CCCC[Se]c1ccccc1[C@@H](C)OC`: the inhibition result in the series filed under Equus caballus [1] is “inactive”.

`CCCC[Se]1(Br)c2ccccc2[C@@H](C)[O+]1C` (stereo partly drawn) showed an inhibition in the series filed under Equus caballus [1] of more than 50%. Besides, the inhibition result in the series with Saccharomyces cerevisiae, in the series filed under Equus caballus [2] and in the series filed under Equus caballus [3] was “inactive” throughout. In addition, in series [4], half-maximal inhibition (IC50) required 26 µM.

In turn, `CCCC[Se]1(Cl)c2ccccc2[C@@H](C)[O+]1C` (stereo partly drawn) showed an inhibition in the series filed under Equus caballus [1] of more than 50%. The inhibition entry with Saccharomyces cerevisiae, in the series listed under Equus caballus [2] and in the series filed under Equus caballus [3] was “inactive” throughout. The molecule further came in with an IC50 in series [4] of 34 µM.

For `CCCC[Te](Br)(Br)c1ccccc1[C@H](C)OC`, the inhibition in the series filed under Equus caballus [1] was more than 50%. The inhibition result in the series with Saccharomyces cerevisiae, in the series listed under Equus caballus [2] and in the series filed under Equus caballus [3] was “inactive” in each case. In addition, 15 µM corresponded to half-maximal inhibition in series [4] (IC50).

With `CCCC[Te]c1ccccc1[C@H](C)OC`, the inhibition result in the series listed under Equus caballus [1] was “inactive”.

Consider `CCCC[Te]c1ccccc1[C@@H](C)OC`, for which the inhibition entry in the series filed under Equus caballus [1] is “inactive”.

Take `CCCC[Te](Br)(Br)c1ccccc1COC`: the inhibition in the series listed under Equus caballus [1] turned out to be 90%. The inhibition entry (in the series on Saccharomyces cerevisiae; in the series filed under Equus caballus [2]; in the series listed under Equus caballus [3]; in series [5]) was “inactive” each time. Further, the viability at 2 h, 80 µM in series [15] was more than 50%. Further, the Stability entry in series [14] is “Stable”. In addition, the viability at 2 h in series [16] turned out to be 60%. The IC50 in series [4] was 4 µM.

For the origin of these results see ChEMBL document CHEMBL3112526, “20S proteasome as novel biological target for organochalcogenanes” (Eur J Med Chem, 2014).
